The target in this assay is Human Factor D (Homo sapiens (Human), UniProt P00746). The assay can be described thus: Human Factor D Assay. The format is biochemical. In outline:
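Factor D (from human serum) 80 nM final + cpd, 5 min RT, 50 mM Tris/1M NaCl pH 7.5; add Z-L-Lys-SBzl 100 μM and DTNB 100 μM final. IC50 by nonlinear fit of rates vs [cpd].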

Setting [1] is: Human Factor D 80 nM, substrate Z-L-Lys-SBzl, read-out: IC50.
The mark [2] stands for this setting: Table 3, Human Factor D 80 nM, substrate Z-L-Lys-SBzl, read-out: IC50 (Stars).
The mark [3] stands for this setting: Human Factor D assay of Example 8, Table 2, read-out: IC50.

Where two headings read alike, the source gives them in different places. Where only a bound is given, the exact number is not on record here.

Human Factor D, sequence (P00746 26-253): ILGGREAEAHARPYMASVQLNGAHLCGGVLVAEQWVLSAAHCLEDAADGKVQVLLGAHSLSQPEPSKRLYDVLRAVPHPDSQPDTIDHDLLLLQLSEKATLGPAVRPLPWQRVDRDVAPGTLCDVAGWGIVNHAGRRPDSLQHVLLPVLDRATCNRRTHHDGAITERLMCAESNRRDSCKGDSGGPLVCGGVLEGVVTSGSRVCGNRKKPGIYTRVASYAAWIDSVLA

For orientation: IC50 means the concentration that inhibits the measured activity by half. As for `CC(=O)c1nn(CC(=O)N2C[C@H](F)C[C@H]2C(=O)Nc2cccc(-c3ncco3)n2)c2ccc(-c3cnc(C)nc3)cc12` [Compound 600, (2S,4R)-1-(2-(3-Acetyl-5-(2-methylpyrimidin-5-yl)-1H-indazol-1-yl)acetyl)-4-fluoro-N-(6-(oxazol-2-yl)pyridin-2-yl)pyrrolidine-2-carboxamide], the 50% inhibitory concentration (IC50) (Human Factor D, Table 3, read-out: IC50) is below 1 µM.

`NC(=O)c1nn(CC(=O)N2C[C@H](F)C[C@H]2C(=O)Nc2cccc(Br)n2)c2ccc(-c3ccc(N4CCOCC4)cc3)cc12` [Compound 3, 1-(2-((2S,4R)-2-((6-Bromopyridin-2-yl)carbamoyl)-4-fluoropyrrolidin-1-yl)-2-oxoethyl)-5-(4-morphlinophenyl)-1H-indazole-3-carboxamide]: the half-maximal inhibitory concentration (IC50) under setting [1] was below 1 µM.

`CC(=O)c1nn(CC(=O)N2C[C@H](F)C[C@H]2C(=O)Nc2ccc(F)c(Br)n2)c2ccc(-c3cnc(C)nc3)cc12` [Compound 397, (2S,4R)-1-(2-(3-Acetyl-5-(2-methylpyrimidin-5-yl)-1H-indazol-1-yl)acetyl)-N-(6-bromo-5-fluoropyridin-2-yl)-4-fluoropyrrolidine-2-carboxamide]: the IC50 under setting [2] is below 1 µM.

As to `COc1cc(Br)nc(NC(=O)[C@@H]2C[C@@H](F)CN2C(=O)Cn2nc(C(C)=O)c3cc(-c4cnc(N)nc4)ccc32)c1` [Compound 432, (2S,4R)-1-(2-(3-Acetyl-5-(2-aminopyrimidin-5-yl)-1H-indazol-1-yl)acetyl)-N-(6-bromo-4-methoxypyridin-2-yl)-4-fluoropyrrolidine-2-carboxamide], the IC50 under setting [2] is below 1 µM.

The compound `CC(=O)c1cn(CC(=O)N2C[C@H](F)C[C@H]2C(=O)NC2CCCN(c3cc(C)ccc3F)C2=O)c2ccc(-c3ccnnc3)cc12` (stereo partly drawn) [Compound 125, (2S,4R)-1-(2-(3-acetyl-5-(pyridazin-4-yl)-1H-indol-1-yl)acetyl)-4-fluoro-N-(1-(2-fluoro-5-methylphenyl)-2-oxopiperidin-3-yl)pyrrolidine-2-carboxamide] yielded a half-inhibitory concentration (IC50) of 1 to 10 µM.

Regarding `COc1cc2c(cc1-c1cnc(C)nc1)c(C(C)=O)cn2CC(=O)N1C[C@H](F)C[C@H]1C(=O)Nc1cccc(-c2ccccc2Cl)c1F` [Compound 318, (2S,4R)-1-(2-(3-Acetyl-6-methoxy-5-(2-methylpyrimidin-5-yl)-1H-indol-1-yl)acetyl)-N-(2′-chloro-2-fluoro-[1,1′-biphenyl]-3-yl)-4-fluoropyrrolidine-2-carboxamide], the IC50 under setting [3] is below 1 µM.

As for `NC(=O)c1nn(CC(=O)N2C[C@H](F)C[C@H]2C(=O)Nc2ccc3ccccc3c2)c2ccc(-c3ccnnc3)cc12` [Compound 131, 1-(2-((2S,4R)-4-fluoro-2-(naphthalen-2-ylcarbamoyl)pyrrolidin-1-yl)-2-oxoethyl)-5-(pyridazin-4-yl)-1H-indazole-3-carboxamide], the concentration for half-maximal inhibition (IC50) under setting [1] is above 10 µM.

For `CC(=O)c1cn(CC(=O)N2C[C@H](F)C[C@H]2C(=O)Nc2cccc(Br)n2)c2cc(O)c(-c3cnc(C)nc3)cc12` [Compound 328, (4R)-1-(2-(3-Acetyl-6-hydroxy-5-(2-methylpyrimidin-5-yl)-1H-indol-1-yl)acetyl)-N-(6-bromopyridin-2-yl)-4-fluoropyrrolidine-2-carboxamide], under setting [3], the concentration for half-maximal inhibition (IC50) was below 1 µM.

On to `CC(=O)c1nn(CC(=O)N2[C@@H]3C[C@@H]3C[C@H]2C(=O)NCc2cccc(Cl)c2F)c2ccc(-c3cnc4ccnn4c3)cc12` [Compound 240, (1R,3S,5R)-2-(2-(3-acetyl-5-(pyrazolo[1,5-a]pyrimidin-6-yl)-1H-indazol-1-yl)acetyl)-N-(3-chloro-2-fluorobenzyl)-2-azabicyclo[3.1.0] hexane-3-carboxamide], for which, under setting [3], the 50% inhibitory concentration (IC50) was below 1 µM.

Take `CC(=O)c1nn(CC(=O)N2C[C@H](F)C[C@H]2C(=O)Nc2cccc(C#N)n2)c2ccc(-c3cnc4cc(C)nn4c3)cc12` [Compound 265, (2S,4R)-1-(2-(3-acetyl-5-(2-methylpyrazolo[1,5-a]pyrimidin-6-yl)-1H-indazol-1-yl)acetyl)-N-(6-cyanopyridin-2-yl)-4-fluoropyrrolidine-2-carboxamide]: the concentration for half-maximal inhibition (IC50) under setting [3] was below 1 µM.
